Assay results published in PMC5920042, “KH176 Safeguards Mitochondrial Diseased Cells from Redox Stress-Induced Cell Death by Interacting with the Thioredoxin System/Peroxiredoxin Enzyme Machinery” (Scientific Reports, 2018).

How the values were obtained:
[1] = tested on: primary human skin fibroblasts; assay: Cellular superoxide detection by HEt oxidation; assay type: cell-based; settings: 24 h compound
Description: The cells were seeded at a density of 3 × 10^3 cells/well into 96-wells black plates. After 24 h, the cells were incubated with different amounts of KH176(m) for 24 h. For the cellular superoxide measurements cells were then washed with M199 without phenol red and incubated with HEt (#D11347, ThermoFisher) in this same medium for 10 minutes. […] Total cellular fluorescence per well was normalized on the incubation with the probe but without compound (vehicle set as 100%). Experiments were performed at least three times with 3 wells per experiment.

human Prdx2 = target: T1, human Prdx2 (Homo sapiens, UniProt P32119); assay: Surface Plasmon Resonance binding; settings: immobilized Prdx2, SPR, 0.31-5.0 µM
T1 construct: purchased Novus Biological NBC1-25855
T1 sequence (P32119 1-198): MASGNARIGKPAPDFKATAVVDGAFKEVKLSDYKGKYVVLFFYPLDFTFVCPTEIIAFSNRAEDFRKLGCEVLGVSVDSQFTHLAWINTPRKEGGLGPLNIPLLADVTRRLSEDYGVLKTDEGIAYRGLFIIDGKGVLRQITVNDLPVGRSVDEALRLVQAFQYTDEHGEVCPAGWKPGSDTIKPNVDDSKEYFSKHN
Description: Prior to protein immobilization all proteins were dialyzed against HBS-E (10 mM Hepes, 150 mM NaCl, 3 mM EDTA) buffer that was previously filtered through a 0.45 µM membrane using dialyze slide according to the manufacturer instruction. Human recombinant proteins peroxiredoxin 2 (Novus Biological NBC1-25855) and CCDC101 (Abcam Ab124547) were immobilized on CM5 (carboxymethylated dextran covalently attached to a gold surface) using the amine coupling method according to manufacturer’s recommendation (Biacore, GE Healthcare). Briefly the CM5 surface was activated with the mixture of EDC/NHS. Recombinant proteins at dilution 1 µg/ml in a corresponding buffer i.e. Peroxiredoxin 2 and CCDC101 in sodium acetate buffer 100 mM (pH 4.9). The control channel was activated with EDC/NHS. All channels were thereafter saturated with 0.1 M ethanolamine solution. KH176 andKH176m were solubilized in HBSS at stock solution 1 mM. They were thereafter further diluted in HBSS to final concentrations 0.31e-6M, 0.62e-6M, 1.25e-6M, 2.5e-6M and 5.0e-6M and injected over the flow cells at a flow rate equal to […] for 2 min, followed by a dissociation phase of 4 min. The sensor chip surface was regenerated with 1 mM HCl. The specific binding profiles were obtained after subtracting the response signal from the control empty channel and from blank-buffer injection. The specific binding was calculated using Biaeval 3 software (Biacore, GE Healthcare) with the postulate of 1:1 ligand/analyte interaction. Based on the Chi^2 value in regard to the Rmax (less than 10%) and the difference interval ±2.5 RU theoretic fitting compared to experimental results, best fitting algorithm between Langmuir or drifting base line was applied.

P4 cell line [2] = assay: GSH measurements (GSH-Glo) under BSO; assay type: cell-based, human; settings: increasing BSO 24 h, 3 µM compound
Description: Cells were seeded at a density of 4 × 10^3 cells/well into 96-wells white plates (#655098, Greiner Bio-one). After 24 h the cells were treated with semi-logarithmic dilutions of BSO up to a concentration of 100 µM alone or in co-incubation with a fixed amount of the test compound. 24 h after the treatment, GSH levels were measured with the GSH-Glo™ Glutathione Assay (# V6911, Promega) according to the manufacturer instructions. Luminescence was measured on a scanning microplate reader (BMG FLUOstar Omega).

P4 cell line [3] = assay: Cellular ROS assay (DCFH-DA); assay type: cell-based, human; settings: Homo sapiens; P4 cells, 24 h compound treatment
Description: The cells were then treated for 72 h (or shorter as indicated) with culture medium containing semi-logarithmic dilutions of the test compound. Alternatively, 3 × 10^3 cells/well were seeded when cells were treated for 24 h only. At the end of the incubation period, cells were loaded with 40 µM DCFH-DA (#D6883, Sigma-Aldrich). in M199 without phenol red for 30 min. The excess of the dye was washed with ice-cold M199 without phenol red and the cells were lysed with 100 µl/well of ice-cold 0.2% Triton X-100 in M199 without phenol red after 10 min incubation in ice. Cellular debris was spun down by centrifugation at 2600 g, 5 min, +4 °C and 90 µl/well of cell lysate were transferred to a black 96-wells plate and DCF fluorescence was measured on a scanning microplate reader (BMG FLUOstar Omega; Ex. 480 nm, Em. 520 nm).

[4] = 28-day repeat oral dose toxicity study, toxicokinetics; assay type: in vivo, Beagle dogs; settings: Beagle, dog, plasma, po; for AUC(0-t): read-out: AUC0–24 h; for Cmax: read-out: Cmax
Description: (§1) Pharmacokinetics and toxicokinetics measurements were performed by the commercial Contract Research Organizations Sai Life Sciences and WuXi AppTec, respectively, according to their standard protocols and in accordance with relevant guidelines and regulations. C57 BL/6 mice, Sprague Dawley rats, and Beagle dogs were studied.

[5] = Single dose pharmacokinetics and bioavailability study; assay type: in vivo, male Sprague Dawley rats; settings: male, Sprague Dawley, rat, plasma
Description: as §1

[6] = female, 10 mg/kg, KH176 10 mg/kg/dose BID oral, F, Day 1, plasma
[7] = female, 10 mg/kg, KH176 10 mg/kg/dose BID oral, F, Day 28, plasma
[8] = female, 25 mg/kg, KH176 25 mg/kg/dose BID oral, F, Day 1, plasma
[9] = female, 25 mg/kg, KH176 25 mg/kg/dose BID oral, F, Day 28, plasma
[10] = female, 62.5 mg/kg, KH176 62.5 mg/kg/dose BID oral, F, Day 1, plasma
[11] = female, 62.5 mg/kg, KH176 62.5 mg/kg/dose BID oral, F, Day 28, plasma
[12] = male, 10 mg/kg, KH176 10 mg/kg/dose BID oral, M, Day 1, plasma
[13] = male, 10 mg/kg, KH176 10 mg/kg/dose BID oral, M, Day 28, plasma
[14] = male, 25 mg/kg, KH176 25 mg/kg/dose BID oral, M, Day 1, plasma
[15] = male, 25 mg/kg, KH176 25 mg/kg/dose BID oral, M, Day 28, plasma
[16] = male, 62.5 mg/kg, KH176 62.5 mg/kg/dose BID oral, M, Day 1, plasma
[17] = male, 62.5 mg/kg, KH176 62.5 mg/kg/dose BID oral, M, Day 28, plasma

Binding to Prdx2 (human Prdx2): not | IC50 (P4 cell line [3]): 22.5 µM | AUC(0-inf) ([5]; iv, KH176 2 mg/kg i.v.): 518 ng·h/mL | AUC(0-t) ([5]; iv, KH176 2 mg/kg i.v.): 510 ng·h/mL | clearance ([5]; iv, KH176 2 mg/kg i.v.): 64.6 mL/min/kg | half-life ([5]; iv, KH176 2 mg/kg i.v.): 2.6 h | C0 ([5]; iv, KH176 2 mg/kg i.v., back extrapolated): 344 ng/mL | Vd ([5]; iv, KH176 2 mg/kg i.v., read-out: Vss): 7 L/kg | bioavailability ([5]; oral, 10 mg/kg p.o. vs 2 mg/kg i.v., from AUClast, read-out: F (oral bioavailability)): 74% | AUC(0-inf) ([5]; po, KH176 10 mg/kg p.o.): 1930 ng·h/mL | AUC(0-t) ([5]; po, KH176 10 mg/kg p.o.): 1870 ng·h/mL | Cmax ([5]; po, KH176 10 mg/kg p.o.): 594 ng/mL | Tmax ([5]; po, KH176 10 mg/kg p.o., read-out: Tmax): 0.67 h
SMILES: Cc1c(C)c2c(c(C)c1O)CC[C@@](C)(C(=O)N[C@@H]1CCCNC1)O2.Cl [KH176, (S)-6-hydroxy-2,5,7,8-tetramethyl-N-((R)-piperidin-3-yl)chroman-2-carboxamide hydrochloride]
Effect on basal cellular superoxide levels (HEt) [1]: no effect | GSH level under BSO (P4 cell line [2]): remained unaffected | half-life [4, 6]: 1.4 h | AUC(0-t) [4, 6]: 8840 ng·h/mL | Cmax [4, 6]: 1150 ng/mL | half-life [4, 7]: 2 h | AUC(0-t) [4, 7]: 14600 ng·h/mL | Cmax [4, 7]: 1540 ng/mL | half-life [4, 8]: 1.8 h | AUC(0-t) [4, 8]: 41900 ng·h/mL | Cmax [4, 8]: 4150 ng/mL | half-life [4, 9]: 2.5 h | AUC(0-t) [4, 9]: 40000 ng·h/mL | Cmax [4, 9]: 5190 ng/mL | half-life [4, 10]: 1.7 h | AUC(0-t) [4, 10]: 63100 ng·h/mL | Cmax [4, 10]: 8150 ng/mL | half-life [4, 11]: 2.3 h | AUC(0-t) [4, 11]: 85500 ng·h/mL | Cmax [4, 11]: 10200 ng/mL | half-life [4, 12]: 1.4 h | AUC(0-t) [4, 12]: 16400 ng·h/mL | Cmax [4, 12]: 2030 ng/mL | half-life [4, 13]: 1.8 h | AUC(0-t) [4, 13]: 19000 ng·h/mL | Cmax [4, 13]: 2330 ng/mL | half-life [4, 14]: 1.8 h | AUC(0-t) [4, 14]: 42600 ng·h/mL | Cmax [4, 14]: 4290 ng/mL | half-life [4, 15]: 2 h | AUC(0-t) [4, 15]: 39900 ng·h/mL | Cmax [4, 15]: 4540 ng/mL | half-life [4, 16]: 1.8 h | AUC(0-t) [4, 16]: 91500 ng·h/mL | Cmax [4, 16]: 10100 ng/mL | half-life [4, 17]: 2.4 h | AUC(0-t) [4, 17]: 102000 ng·h/mL | Cmax [4, 17]: 12600 ng/mL
